# Laboratory results from PubChem BioAssay (NCI).
#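 Growth conditions: 96-well plates. Treatment: test compound, 48 hours, 5 concentrations. Analysis: linear interpolation between bracketing concentrations; unreached endpoints set to highest concentration. At the GI50, growth is halved. TGI: concentration producing complete growth inhibition.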
# Legend:
# Assay in all cases: inhibition of tumour cell growth, NCI panel, 48 h
# [1] = tested on: 786-0 renal
# [2] = tested on: A498 renal
# [3] = tested on: A549 NSCLC
# [4] = tested on: ACHN renal
# [5] = tested on: BT-549 breast
# [6] = tested on: CAKI-1 renal
# [7] = tested on: CCRF-CEM leukemia
# [8] = tested on: COLO 205 colon
# [9] = tested on: DU-145 prostate
# [10] = tested on: EKVX NSCLC
# [11] = tested on: HCC-2998 colon
# [12] = tested on: HCT-116 colon
# [13] = tested on: HCT-15 colon
# [14] = tested on: HL-60(TB) leukemia
# [15] = tested on: HOP-62 NSCLC
# [16] = tested on: HOP-92 NSCLC
# [17] = tested on: HS 578T breast
# [18] = tested on: HT29 colon
# [19] = tested on: IGROV1 ovarian
# [20] = tested on: K-562 leukemia
# [21] = tested on: KM12 colon
# [22] = tested on: LOX IMVI melanoma
# [23] = tested on: M14 melanoma
# [24] = tested on: MALME-3M melanoma
# [25] = tested on: MCF7 breast
# [26] = tested on: MDA-MB-231 breast
# [27] = tested on: MDA-MB-435
# [28] = tested on: MDA-MB-468 breast
# [29] = tested on: MOLT-4 leukemia
# [30] = tested on: NCI-H226 lung
# [31] = tested on: NCI-H23 lung
# [32] = tested on: NCI-H460 lung
# [33] = tested on: NCI-H522 lung
# [34] = tested on: NCI/ADR-RES ovarian
# [35] = tested on: OVCAR-3 ovarian
# [36] = tested on: OVCAR-4 ovarian
# [37] = tested on: OVCAR-5 ovarian
# [38] = tested on: OVCAR-8 ovarian
# [39] = tested on: PC-3 prostate
# [40] = tested on: RPMI-8226 leukemia
# [41] = tested on: RXF 393 renal
# [42] = tested on: SF-268 CNS
# [43] = tested on: SF-295 CNS
# [44] = tested on: SF-539 CNS
# [45] = tested on: SK-MEL-2 melanoma
# [46] = tested on: SK-MEL-28 melanoma
# [47] = tested on: SK-MEL-5 melanoma
# [48] = tested on: SK-OV-3 ovarian
# [49] = tested on: SN12C renal
# [50] = tested on: SNB-19 CNS
# [51] = tested on: SNB-75 CNS
# [52] = tested on: SR leukemia
# [53] = tested on: SW-620 colon
# [54] = tested on: T-47D breast
# [55] = tested on: TK-10 renal
# [56] = tested on: U251 CNS
# [57] = tested on: UACC-257 melanoma
# [58] = tested on: UACC-62 melanoma
# [59] = tested on: UO-31 renal
smiles,measurement,setting,value
O=C1Nc2cc(-c3ccc(NS(=O)(=O)c4ccc(-c5ccccc5)cc4)cc3)ccc2/C1=C/c1ccc[nH]1,GI50,[1],3.91 µM
same,TGI,[1],13.9 µM
same,GI50,[2],12.6 µM
same,TGI,[2],25.1 µM
same,GI50,[3],1.82 µM
same,TGI,[3],4.86 µM
same,GI50,[4],6.16 µM
same,TGI,[4],18.7 µM
same,GI50,[5],2.49 µM
same,TGI,[5],7.75 µM
same,GI50,[6],5.64 µM
same,TGI,[6],18.4 µM
same,GI50,[7],5.82 µM
same,TGI,[7],18.6 µM
same,GI50,[8],3.7 µM
same,TGI,[8],14 µM
same,GI50,[9],2.09 µM
same,TGI,[9],4.59 µM
same,GI50,[10],0.225 µM
same,TGI,[10],8.94 µM
same,GI50,[11],4.88 µM
same,TGI,[11],28.4 µM
same,GI50,[12],3.28 µM
same,TGI,[12],11.2 µM
same,GI50,[13],2.26 µM
same,TGI,[13],7.86 µM
same,GI50,[14],7.67 µM
same,TGI,[14],31.7 µM
same,GI50,[15],8.59 µM
same,TGI,[15],21.8 µM
same,GI50,[16],2.2 µM
same,TGI,[16],7.22 µM
same,GI50,[17],12.2 µM
same,TGI,[17],56.7 µM
same,GI50,[18],2.42 µM
same,TGI,[18],6.71 µM
same,GI50,[19],8.34 µM
same,TGI,[19],22.2 µM
same,GI50,[20],3.8 µM
same,TGI,[20],16.6 µM
same,GI50,[21],2.48 µM
same,TGI,[21],18.7 µM
same,GI50,[22],2.59 µM
same,TGI,[22],6.82 µM
same,GI50,[23],4.7 µM
same,TGI,[23],16.8 µM
same,GI50,[24],2.79 µM
same,TGI,[24],9.7 µM
same,GI50,[25],0.0746 µM
same,TGI,[25],1.54 µM
same,GI50,[26],2.96 µM
same,TGI,[26],11.6 µM
same,GI50,[27],5.71 µM
same,TGI,[27],21 µM
same,GI50,[28],0.0402 µM
same,TGI,[28],1.04 µM
same,GI50,[29],3.88 µM
same,TGI,[29],17.7 µM
same,GI50,[30],1.9 µM
same,TGI,[30],14.8 µM
same,GI50,[31],1.2 µM
same,TGI,[31],5.91 µM
same,GI50,[32],0.351 µM
same,TGI,[32],2.13 µM
same,GI50,[33],2.27 µM
same,TGI,[33],7.94 µM
same,GI50,[34],6.29 µM
same,TGI,[34],30.9 µM
same,GI50,[35],1.94 µM
same,TGI,[35],4.65 µM
same,GI50,[36],2.1 µM
same,TGI,[36],11.9 µM
same,GI50,[37],3.42 µM
same,TGI,[37],14.3 µM
same,GI50,[38],3.45 µM
same,TGI,[38],12.2 µM
same,GI50,[39],3.27 µM
same,TGI,[39],18.1 µM
same,GI50,[40],3.09 µM
same,TGI,[40],15.7 µM
same,GI50,[41],2.48 µM
same,TGI,[41],5.56 µM
same,GI50,[42],4.26 µM
same,TGI,[42],16.3 µM
same,GI50,[43],7.29 µM
same,TGI,[43],19.8 µM
same,GI50,[44],3.66 µM
same,TGI,[44],14.7 µM
same,GI50,[45],11.8 µM
same,TGI,[45],24.4 µM
same,GI50,[46],3.77 µM
same,TGI,[46],13.5 µM
same,GI50,[47],6.91 µM
same,TGI,[47],21.8 µM
same,GI50,[48],13.3 µM
same,TGI,[48],26 µM
same,GI50,[49],3.07 µM
same,TGI,[49],12 µM
same,GI50,[50],5.91 µM
same,TGI,[50],18.7 µM
same,GI50,[51],12.8 µM
same,TGI,[51],35.6 µM
same,GI50,[52],1.9 µM
same,TGI,[52],10.9 µM
same,GI50,[53],2.45 µM
same,TGI,[53],6.56 µM
same,GI50,[54],0.136 µM
same,TGI,[54],3.57 µM
same,GI50,[55],2.66 µM
same,TGI,[55],11 µM
same,GI50,[56],2.18 µM
same,TGI,[56],5.73 µM
same,GI50,[57],5.84 µM
same,TGI,[57],20.4 µM
same,GI50,[58],5.37 µM
same,TGI,[58],19.7 µM
same,GI50,[59],10.7 µM
same,TGI,[59],29.1 µM
